What was measured:
human GHS receptor [1] = target: T1, human GHS receptor (Homo sapiens, UniProt Q92847); test: h bind IC50 (binding assay, Table 1); settings: human receptor; Table 1
human GHS receptor [2] = target: T1, human GHS receptor; test: Ghrelin IP1 agonist assay (IP1 HTRF); type: cell-based; set-up: expressed in transfected cells; host or cells: HEK293s; settings: for Emax: 2 h, agonist effect as % maximal effect of GHRP-6 (5 μM), read-out: h IP1 ag %; for EC50: HEK293s cells stably expressing human GHS receptor, 2 hours at 37° C., read-out: h IP1 ag EC50
In short: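 Cells: HEK293s stably expressing human GHS receptor, in stimulation buffer containing 0.02% fatty acid free BSA.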

T1 sequence (Q92847 whole entry): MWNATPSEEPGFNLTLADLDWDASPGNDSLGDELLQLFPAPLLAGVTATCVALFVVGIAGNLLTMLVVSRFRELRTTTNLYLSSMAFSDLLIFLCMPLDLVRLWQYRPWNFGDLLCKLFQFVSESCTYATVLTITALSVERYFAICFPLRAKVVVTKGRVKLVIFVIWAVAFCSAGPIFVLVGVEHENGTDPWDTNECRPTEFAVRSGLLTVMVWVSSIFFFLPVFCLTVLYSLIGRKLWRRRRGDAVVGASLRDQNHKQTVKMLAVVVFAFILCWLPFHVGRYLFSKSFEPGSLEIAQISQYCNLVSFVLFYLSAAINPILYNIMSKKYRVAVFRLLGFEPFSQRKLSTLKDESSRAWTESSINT

| IC50 (human GHS receptor [1]) [nM] | Emax (human GHS receptor [2]) [%] | EC50 (human GHS receptor [2]) [nM] | SMILES |
| --- | --- | --- | --- |
| 8.7 | 51.3 | 13.4 | CN(C)CCCS(=O)(=O)c1ccc2nc(NC(=O)NC(=O)c3ccccc3Cl)sc2c1 [Example 202, 2-Chloro-N-[[6-(3-dimethylaminopropylsulfonyl)benzothiazol-2-yl]carbamoyl]benzamide] |
| 2.8 | 21.4 | 4.01 | C#Cc1ccc(Cl)c(C(=O)NC(=O)Nc2nc3ccc(S(=O)(=O)CCCN4CCN(C)CC4)cc3s2)c1 [Example 220, 2-Chloro-5-ethynyl-N-[[6-[3-(4-methylpiperazin-1-yl)propylsulfonyl]benzothiazol-2-yl]carbamoyl]benzamide] |
| 23.1 | 48.9 | 5.7 | Cc1ccnn1-c1ccc(Cl)c(C(=O)NC(=O)Nc2nc3ccc(S(C)(=O)=O)cc3s2)c1 [Example 55, 2-Chloro-5-(5-methyl-1H-pyrazol-1-yl)-N-(6-(methylsulfonyl)benzothiazol-2-ylcarbamoyl)benzamide] |
| 37.4 | 14.1 | 3010 | CS(=O)(=O)c1ccc2nc(NC(=O)NC(=O)c3cc(-n4ccnc4)ccc3Cl)sc2c1 [Example 69, 2-Chloro-5-(1H-imidazol-1-yl)-N-(6-(methylsulfonyl)benzothiazol-2-ylcarbamoyl)benzamide] |
| 400 | 28 | 309 | O=C(NC(=O)c1ccccc1Cl)Nc1nc2ccc(S(=O)(=O)CCN3CC[C@@H](F)C3)cc2s1 [Example 32, 2-Chloro-N-[[6-[2-[(3R)-3-fluoropyrrolidin-1-yl]ethylsulfonyl]benzothiazol-2-yl]carbamoyl]benzamide] |
| 1660 | 10.8 | 1290 | CS(=O)(=O)c1ccc(C(=O)NC(=O)Nc2nc3ccc(S(C)(=O)=O)cc3s2)c(Cl)c1 [Example 113, 2-Chloro-4-methylsulfonyl-N-[(6-methylsulfonylbenzothiazol-2-yl)carbamoyl]benzamide] |
| 272 | 8.23 | 81 | Cc1ccc(Cl)c(C(=O)NC(=O)Nc2nc3ccc(S(C)(=O)=O)cc3s2)c1 [Example 65, 2-Chloro-5-methyl-N-(6-(methylsulfonyl)benzothiazol-2-ylcarbamoyl)benzamide] |
| 10.1 | 10.8 | ≥ 25000 | Cc1ccn(-c2ccc(Cl)c(C(=O)NC(=O)Nc3nc4ccc(S(C)(=O)=O)cc4s3)c2)n1 [Example 56, 2-Chloro-5-(3-methyl-1H-pyrazol-1-yl)-N-(6-(methylsulfonyl)benzothiazol-2-ylcarbamoyl)benzamide] |
| 100 | 17.3 | 219 | Cc1ccccc1C(=O)NC(=O)Nc1nc2ccc(S(C)(=O)=O)cc2s1 [Example 128, 2-Methyl-N-[(6-methylsulfonylbenzothiazol-2-yl)carbamoyl]benzamide] |
| 2.2 | 9.77 | ≥ 25000 | COCCNCCS(=O)(=O)c1ccc2nc(NC(=O)NC(=O)c3cc(-n4cccc4)ccc3Cl)sc2c1 [Example 80, 2-Chloro-N-[[6-[2-(2-methoxyethylamino)ethylsulfonyl]benzothiazol-2-yl]carbamoyl]-5-pyrrol-1-yl-benzamide] |
| 1310 | 8.82 | 3010 | CS(=O)(=O)Oc1ccc(Cl)c(C(=O)NC(=O)Nc2nc3ccc(S(C)(=O)=O)cc3s2)c1 [Example 58, 4-Chloro-3-(6-(methylsulfonyl)benzothiazol-2-ylcarbamoylcarbamoyl)phenyl methanesulfonate] |
| 197 | 21.5 | 217 | CC(C)c1ccccc1C(=O)NC(=O)Nc1nc2ccc(S(C)(=O)=O)cc2s1 [Example 136, N-[(6-Methylsulfonylbenzothiazol-2-yl)carbamoyl]-2-propan-2-yl-benzamide] |
| 107 | 46.7 | 27.3 | O=C(NC(=O)c1ccccc1Cl)Nc1nc2ccc(S(=O)(=O)C3CCCNC3)cc2s1 (stereo not drawn) [Example 139, 2-Chloro-N-[[6-(3-piperidylsulfonyl)benzothiazol-2-yl]carbamoyl]benzamide] |
| 207 | 0.377 | > 9300 | CN1CCN(c2ccc(Cl)c(C(=O)NC(=O)Nc3nc4ccc(S(C)(=O)=O)cc4s3)c2)CC1 [Example 59, 2-Chloro-5-(4-methylpiperazin-1-yl)-N-(6-(methylsulfonyl)benzothiazol-2-ylcarbamoyl)benzamide] |
| 69.6 | 39.9 | 36.4 | O=C(NC(=O)c1ccccc1Cl)Nc1nc2ccc(S(=O)(=O)CCN3CCNCC3)cc2s1 [Example 8, 2-Chloro-N-[[6-(2-piperazin-1-ylethylsulfonyl)benzothiazol-2-yl]carbamoyl]benzamide] |
| 0.3 | 6.6 | 6070 | O=C(NC(=O)c1cc(-n2cccc2)ccc1Cl)Nc1nc2ccc(S(=O)(=O)CCCNCC3CC3)cc2s1 [Example 72, 2-Chloro-N-[[6-[3-(cyclopropylmethylamino)propylsulfonyl]benzothiazol-2-yl]carbamoyl]-5-pyrrol-1-yl-benzamide] |
| 59 | 3.07 | 347 | CC(C)(C)OC(=O)N1CCC(Oc2ccc(Cl)c(C(=O)NC(=O)Nc3nc4ccc(S(C)(=O)=O)cc4s3)c2)C1 (stereo not drawn) [Example 248, tert-butyl 3-(4-chloro-3-(6-(methylsulfonyl)benzo[d]thiazol-2-ylcarbamoyl-carbamoyl)phenoxy) pyrrolidine-1-carboxylate] |
| 76.2 | 52.2 | 8.43 | CCN1CCC(S(=O)(=O)c2ccc3nc(NC(=O)NC(=O)c4ccccc4Cl)sc3c2)CC1 [Example 173, 2-Chloro-N-[[6-[(1-ethyl-4-piperidyl)sulfonyl]benzothiazol-2-yl]carbamoyl]benzamide] |
| 21.5 | 41.7 | 11000 | CS(=O)(=O)c1ccc2nc(NC(=O)NC(=O)c3ccccc3Sc3ccccc3)sc2c1 [Example 133, N-[(6-Methylsulfonylbenzothiazol-2-yl)carbamoyl]-2-phenylsulfanyl-benzamide] |
| 56.1 | 36.6 | 320 | CS(=O)(=O)c1ccc2nc(NC(=O)NC(=O)c3ccccc3Oc3ccccc3)sc2c1 [Example 127, N-[(6-Methylsulfonylbenzothiazol-2-yl)carbamoyl]-2-phenoxy-benzamide] |
| 3.82 | 6.73 | ≥ 20000 | CC(C)(C)OC(=O)N1CCN(c2ccc(Cl)c(C(=O)NC(=O)Nc3nc4ccc(S(C)(=O)=O)cc4s3)c2)CC1 [Example 234, tert-butyl 4-(4-chloro-3-(6-(methylsulfonyl)benzo[d]thiazol-2-ylcarbamoyl-carbamoyl)phenyl) piperazine-1-carboxylate] |
| 60.3 | 27.8 | 224 | CC(C)NCC(C)(C)S(=O)(=O)c1ccc2nc(NC(=O)NC(=O)c3ccccc3Cl)sc2c1 [Example 225, 2-chloro-N-(6-(1-(isopropylamino)-2-methylpropan-2-ylsulfonyl)benzo[d]thiazol-2-ylcarbamoyl)benzamide] |

From patent US20120115845A1, “THERAPEUTIC AGENTS” (priority 2007, published 2012)
